From patent publication US4174451A, “2-Furyl-(3,4-dimethyl-2-pyridyl)-carbinol” (Laboratorios Made, S.A., priority 1977, dated 1979)

What was measured:
Swiss I.C.R. albino mice [1] = test: Thermal analgesia, 55° C. Hot Plate technique; assay type: in vivo; settings: for Jumping time in sec. x ± S.E.M.: 30 minutes after administration, batches of 10 mice, mean ± S.E.M., control 63.7 ± 4.54; for Signif. of differences vs Control (jumping time): p value
Protocol: The thermal analgesic effect was studied in Swiss I.C.R. albino mice. The 55° C. Hot Plate technique was used. Batches of 10 mice were used.
The products under study were administered intraperitoneally, and after 30 minutes the mice were placed on the hot plate, count being made of the time, in seconds, it took them to jump. Batches of control animals were injected only with distilled water.

[2] = Acute toxicity in mice (LD50, Litchfield-Wilcoxon test); parameters: species or system Swiss I.C.R. albino mice; settings: mouse, in vivo, ip; intraperitoneal, deaths counted 48 hours after treatment, both sexes, fasted 24 hours
Protocol: An acute toxicity study was made on Swiss I.C.R. albino mice of both sexes of 30± 2 g in weight, kept without food for 24 hours prior to the experiment. Ambient temperature and relative humidity were kept constant. The products were administered intraperitoneally, the number of deaths being counted 48 hours after treatment. The lethal dose (LD50) was calculated by the Litchfield-Wilcoxon test.

Swiss I.C.R. albino mice [3] = test: Chemical analgesia, acetic acid writhing technique; assay type: in vivo; settings: for No. of writhes x ± S.E.M.: 30 minutes before 0.25 ml of 1% acetic acid i.p., counted twenty minutes later, batches of 10 mice, control 78.4 ± 6.7
Protocol: The analgesic effect was studied in Swiss I.C.R. albino mice, by the acetic acid writhing technique. Batches of 10 mice were made.
The products under study were administered intraperitoneally, and 30 minutes later 0.25 ml of 1% acetic acid was injected intraperitoneally. A batch of control animals received only the acetic acid. Twenty minutes following administration of the acetic acid, the number of writhes in each mouse was counted.

[4] = in words, compared with dextropropoxyphene
[5] = p value, 30 mg/kg intraperitoneal

Structure (SMILES)	Jumping time in sec. x ± S.E.M. (Swiss I.C.R. albino mice [1]; 30 mg/kg intraperitoneal) [s]	Signif. of differences vs Dextroprop. (jumping time) (Swiss I.C.R. albino mice [1]; 30 mg/kg intraperitoneal, vs dextropropoxyphene 30 mg/kg, N.S.)	thermal analgesic action (Swiss I.C.R. albino mice [1]; [4])	Signif. of differences vs Control (jumping time) (Swiss I.C.R. albino mice [1]; 30 mg/kg intraperitoneal)	LD50 at 48 h [2] [mg/kg]	No. of writhes x ± S.E.M. (Swiss I.C.R. albino mice [3]; 30 mg/kg intraperitoneal)	chemical analgesic action (Swiss I.C.R. albino mice [3]; [4])	Signif. of differences vs Control (writhes) (Swiss I.C.R. albino mice [3]; [5])	Signif. of differences vs Dextroprop. (writhes) (Swiss I.C.R. albino mice [3]; p value, 30 mg/kg intraperitoneal, vs dextropropoxyphene 30 mg/kg)
Cc1ccnc(C(O)c2ccco2)c1C (stereo not shown) [Product I, 2-furyl-(3,4-dimethyl-2-pyridyl)-carbinol]	110.1 ± 13.28	N.S.	same thermal analgesic action as the dextropropoxyphene	< 0.005	309	53 ± 6.07	chemical analgesic action, but of lesser intensity than that of dextropropoxyphene	< 0.02	< 0.00005
CCC(=O)O[C@](Cc1ccccc1)(c1ccccc1)[C@H](C)CN(C)C [Dextropropoxyphene, dextropropoxyphene, reference compound]	116.8 ± 12.43	–	–	< 0.01	–	8.4 ± 4.04	–	< 0.00005	–
